Experimental data reported in PubChem BioAssay AID330 (DTP/NCI, 2004).
Values joined by “and” are separate entries in the source; they are usually repeats but may differ in a detail not shown here. Equal entries are not always repeated. Inconclusive results and toxic doses are left out.

Tested on: P388 leukemia ip, CD2F1 mice, survival T/C
Assay: NCI In Vivo Anticancer Drug Screen. Data for tumor model P388 Leukemia (intraperitoneal) in CD2F1 (CDF1) mice
Settings: endpoint: median survival time, higher = longer survival
In short: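 Mice carrying the transplanted tumor received test compound or vehicle. Survival was recorded in each group, and the value is the treated-group measurement divided by that of the vehicle-treated control group.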

[1] = dose: 25.0 mg/kg/injection, schedule: Q01DX005 (ip), vehicle: Klucel (hydroxypropylcellulose) (HPC)
[2] = dose: 50.0 mg/kg/injection, schedule: Q01DX009 (ip), vehicle: saline with Tween-80
[3] = dose: 100.0 mg/kg/injection, schedule: Q01DX009 (ip), vehicle: saline with Tween-80
[4] = dose: 50.0 mg/kg/injection, schedule: Q01DX005 (ip), vehicle: saline with Tween-80
[5] = dose: 100.0 mg/kg/injection, schedule: Q01DX005 (ip), vehicle: saline with Tween-80
[6] = dose: 200.0 mg/kg/injection, schedule: Q01DX005 (ip), vehicle: saline with Tween-80
[7] = dose: 50.0 mg/kg/injection, schedule: Q01DX009 (ip), vehicle: Klucel (hydroxypropylcellulose) (HPC)
[8] = dose: 100.0 mg/kg/injection, schedule: Q01DX009 (ip), vehicle: Klucel (hydroxypropylcellulose) (HPC)
[9] = dose: 200.0 mg/kg/injection, schedule: Q01DX009 (ip), vehicle: Klucel (hydroxypropylcellulose) (HPC)
[10] = dose: 60.0 mg/kg/injection, schedule: Q01DX005 (ip), vehicle: saline with Tween-80
[11] = dose: 120.0 mg/kg/injection, schedule: Q01DX005 (ip), vehicle: saline with Tween-80
[12] = dose: 240.0 mg/kg/injection, schedule: Q01DX005 (ip), vehicle: saline with Tween-80
[13] = dose: 50.0 mg/kg/injection, schedule: Q01DX005 (ip), vehicle: Klucel (hydroxypropylcellulose) (HPC)
[14] = dose: 100.0 mg/kg/injection, schedule: Q01DX005 (ip), vehicle: Klucel (hydroxypropylcellulose) (HPC)
[15] = dose: 50.0 mg/kg/injection, schedule: Q04DX003 (ip), vehicle: saline with Tween-80
[16] = dose: 100.0 mg/kg/injection, schedule: Q04DX003 (ip), vehicle: saline
[17] = dose: 25.0 mg/kg/injection, schedule: Q01DX009 (ip), vehicle: saline
[18] = dose: 50.0 mg/kg/injection, schedule: Q01DX009 (ip), vehicle: saline

O=C1c2cc3ccccc3cc2NC(O)c2cccn21 (stereo not drawn)
T/C (dose: 0.1 mg/kg/injection, schedule: Q01DX005 (ip), vehicle: water): 96 % of control
T/C (dose: 0.2 mg/kg/injection, schedule: Q01DX005 (ip), vehicle: water): 91 % of control
T/C (dose: 0.4 mg/kg/injection, schedule: Q01DX005 (ip), vehicle: water): 100 % of control
T/C (dose: 0.8 mg/kg/injection, schedule: Q01DX005 (ip), vehicle: water): 107 % of control
T/C (dose: 1.6 mg/kg/injection, schedule: Q01DX005 (ip), vehicle: water): 116 % of control
T/C (dose: 5.0 mg/kg/injection, schedule: Q01DX005 (ip), vehicle: distilled water + Tween-80): 100 % of control
T/C (dose: 10.0 mg/kg/injection, schedule: Q01DX005 (ip), vehicle: distilled water + Tween-80): 107 % of control
T/C (dose: 20.0 mg/kg/injection, schedule: Q01DX005 (ip), vehicle: distilled water + Tween-80): 100 % of control
T/C (dose: 40.0 mg/kg/injection, schedule: Q01DX005 (ip), vehicle: distilled water + Tween-80): 99 % of control
T/C (dose: 80.0 mg/kg/injection, schedule: Q01DX005 (ip), vehicle: distilled water + Tween-80): 101 % of control

COc1cc([C@@H]2c3cc4c(cc3[C@H](OC(=O)c3ccccc3C(=O)O)[C@H]3COC(=O)[C@H]23)OCO4)cc(OC)c1OC
T/C (dose: 12.5 mg/kg/injection, schedule: Q01DX005 (ip), vehicle: Klucel (hydroxypropylcellulose) (HPC)): 119 % of control
T/C [1]: 119 % of control

CN(C)Cc1c(N=Nc2cccc3c(N=Nc4[nH]c5ccccc5c4CN(C)C)cccc23)[nH]c2ccccc12
T/C [2]: 110 % of control
T/C [3]: 108 % of control
T/C (dose: 200.0 mg/kg/injection, schedule: Q01DX009 (ip), vehicle: saline with Tween-80): 89 % of control

CCCCC(CCCC)[N+](=O)[O-]
T/C [4]: 108 % of control
T/C [5]: 110 % of control
T/C [6]: 103 % of control

NNC1=Nc2ccccc2N=C2CCSCC21 (stereo not drawn)
T/C [7]: 97 % of control
T/C [8]: 112 % of control
T/C [9]: 108 % of control

Nc1ncncc1C(C1=C(O)COC1=O)C1=C(O)COC1=O
T/C [10]: 98 % of control
T/C [11]: 100 % of control
T/C [12]: 98 % of control

CN(C(=O)c1ccccc1)C1CCCC(=O)CC1 (stereo not drawn)
T/C [1]: 105 % of control
T/C [13]: 100 % of control
T/C [14]: 99 % of control
T/C (dose: 200.0 mg/kg/injection, schedule: Q01DX005 (ip), vehicle: Klucel (hydroxypropylcellulose) (HPC)): 97 % of control

CS1(=O)=N/C(=N\C(=O)Nc2ccccc2)c2ccccc21 (stereo not drawn)
T/C [7]: 100 % of control
T/C [8]: 102 % of control
T/C [9]: 102 % of control

COC(=O)c1[nH]c(=O)[nH]c(=O)c1F
T/C (dose: 8.0 mg/kg/injection, schedule: Q01DX009 (ip), vehicle: saline with Tween-80): 118 % of control
T/C (dose: 16.0 mg/kg/injection, schedule: Q01DX009 (ip), vehicle: saline with Tween-80): 104 % of control
T/C (dose: 22.0 mg/kg/injection, schedule: Q04DX003 (ip), vehicle: saline with Tween-80): 110 % of control
T/C (dose: 25.0 mg/kg/injection, schedule: Q01DX009 (ip), vehicle: saline with Tween-80): 100 % of control
T/C [2]: 100 % of control
T/C [15]: 155 % of control
T/C [3]: 90 % of control

O=c1[nH]nc2c3cccc4cccc(c5ccc(O)c1c52)c43
T/C (dose: 60.0 mg/kg/injection, schedule: Q01DX005 (ip), vehicle: Klucel (hydroxypropylcellulose) (HPC)): 103 % of control
T/C (dose: 120.0 mg/kg/injection, schedule: Q01DX005 (ip), vehicle: Klucel (hydroxypropylcellulose) (HPC)): 97 % of control
T/C (dose: 240.0 mg/kg/injection, schedule: Q01DX005 (ip), vehicle: Klucel (hydroxypropylcellulose) (HPC)): 97 % of control

OCC1OC(n2ccc3c(Cl)ncnc32)C(O)C1O (stereo not drawn)
T/C (dose: 6.25 mg/kg/injection, schedule: Q01DX005 (ip), vehicle: suspension in saline): 110 % of control
T/C (dose: 12.5 mg/kg/injection, schedule: Q01DX005 (ip), vehicle: suspension in saline): 117 % of control
T/C (dose: 25.0 mg/kg/injection, schedule: Q01DX005 (ip), vehicle: suspension in saline): 96 % of control

CC(C)(NC(=O)OC12CC3CC(CC(C3)C1)C2)C(=O)O
T/C [10]: 109 % of control
T/C [11]: 104 % of control
T/C [12]: 98 % of control

CC1=CCC2C(C)(C)CCCC2(C)C1CCC(C)(O)C(O)CO (stereo not drawn)
T/C (dose: 25.0 mg/kg/injection, schedule: Q01DX005 (ip), vehicle: Klucel + Tween-80): 98 % of control
T/C (dose: 50.0 mg/kg/injection, schedule: Q01DX005 (ip), vehicle: Klucel + Tween-80): 101 % of control
T/C (dose: 100.0 mg/kg/injection, schedule: Q01DX005 (ip), vehicle: Klucel + Tween-80): 98 % of control
T/C (dose: 200.0 mg/kg/injection, schedule: Q01DX005 (ip), vehicle: Klucel + Tween-80): 100 % of control

Cc1cc2ccccc2c[n+]1[O-]
T/C [13]: 97 % of control
T/C [14]: 112 % of control

O=S1(=O)CCOc2ccccc2N1
T/C (dose: 100.0 mg/kg/injection, schedule: Q04DX003 (ip), vehicle: Klucel (hydroxypropylcellulose) (HPC)): 96 % of control
T/C (dose: 200.0 mg/kg/injection, schedule: Q04DX003 (ip), vehicle: Klucel (hydroxypropylcellulose) (HPC)): 96 % of control
T/C (dose: 400.0 mg/kg/injection, schedule: Q04DX003 (ip), vehicle: Klucel (hydroxypropylcellulose) (HPC)): 90 % of control

COC(=O)C[CH2][Sn]([Cl])([Cl])[Cl]
T/C (dose: 25.0 mg/kg/injection, schedule: Q04DX003 (ip), vehicle: saline): 98 % of control
T/C (dose: 50.0 mg/kg/injection, schedule: Q04DX003 (ip), vehicle: saline): 100 % of control
T/C [16]: 100 % of control and 96 % of control

O=C1NC2(CCCCC2)C(=O)N1CCCN1C(=O)NC2(CCCCC2)C1=O
T/C [10]: 107 % of control
T/C [11]: 102 % of control
T/C [12]: 101 % of control

CC(NC(=O)CNC(=O)CN)C(=O)O (stereo not drawn)
T/C (dose: 25.0 mg/kg/injection, schedule: Q01DX005 (ip), vehicle: saline): 102 % of control
T/C (dose: 50.0 mg/kg/injection, schedule: Q01DX005 (ip), vehicle: saline): 92 % of control
T/C (dose: 100.0 mg/kg/injection, schedule: Q01DX005 (ip), vehicle: saline): 94 % of control
T/C (dose: 200.0 mg/kg/injection, schedule: Q01DX005 (ip), vehicle: saline): 94 % of control

Cn1c(=O)c2[nH]c(-n3ccc(=N)cc3)nc2n(C)c1=O
T/C [16]: 103 % of control
T/C (dose: 200.0 mg/kg/injection, schedule: Q04DX003 (ip), vehicle: saline): 99 % of control
T/C (dose: 400.0 mg/kg/injection, schedule: Q04DX003 (ip), vehicle: saline): 99 % of control

CC1COS(=O)(=O)C1 (stereo not drawn)
T/C [17]: 102 % of control
T/C [18]: 101 % of control

O=C(O)/C=C\C(=O)O
T/C (dose: 1.5 mg/kg/injection, schedule: Q01DX009 (ip), vehicle: saline with Tween-80): 95 % of control
T/C (dose: 3.0 mg/kg/injection, schedule: Q01DX009 (ip), vehicle: saline with Tween-80): 100 % of control
T/C (dose: 6.0 mg/kg/injection, schedule: Q01DX009 (ip), vehicle: saline with Tween-80): 109 % of control
T/C [17]: 95 % of control
T/C [18]: 104 % of control
T/C (dose: 100.0 mg/kg/injection, schedule: Q01DX009 (ip), vehicle: saline): 95 % of control

O=C(NC1CCCCC1)C(=NC1CCCCC1)c1cc(Cl)c(Cl)c(Cl)c1Cl
T/C [15]: 98 % of control
T/C (dose: 100.0 mg/kg/injection, schedule: Q04DX003 (ip), vehicle: saline with Tween-80): 98 % of control
T/C (dose: 200.0 mg/kg/injection, schedule: Q04DX003 (ip), vehicle: saline with Tween-80): 87 % of control

COC(=O)c1ccc(C)c(N)c1
T/C [4]: 102 % of control
T/C [5]: 104 % of control
T/C [6]: 102 % of control
